Results reported in publication PMC12171682, “Saarvienin A—A Novel Glycopeptide with Potent Activity against Drug‐Resistant Bacteria” (Angewandte Chemie (International Ed. in English), 2025).
Values after ≈ are worked out from the molar mass of the structure shown. Read-outs that look alike come from different tables or passages of the source.

Columns and labels:
E. faecalis ATCC 29212 [1] = assay: microbe, parasite or virus in culture; conditions: Enterococcus faecalis, ATCC29212, 24 h, read-out: MIC, E. faecalis ATCC29212
[2] = test system: vancomycin‐resistant E. faecium clinical isolates with reduced susceptibility to daptomycin (n = 26); assay: microbe, parasite or virus in culture; conditions: Enterococcus faecium; for MIC: 24 h
E. faecalis ATCC 29212 [3] = conditions: reference strain in Table S5; broth microdilution, MHB II, 37 °C, 24 h; daptomycin with 50 µg/mL Ca2+; mean of two independent experiments
[4] = test system: vancomycin‐resistant E. faecium clinical isolates with reduced susceptibility to daptomycin (n = 26); conditions: 24 h

Compound `CC1(C)S[C@@H]2[C@H](NC(=O)[C@H](N)c3ccccc3)C(=O)N2[C@H]1C(=O)O` [Ampicillin] has an MIC (E. faecalis ATCC 29212 [1]) of 2 µg/mL (≈ 5.72 µM), an MIC ([2]; read-out: MIC, Enterococcus faecium isolate 1) greater than 64 µg/mL and an MIC ([2]; read-out: MIC, Enterococcus faecium isolate 2) greater than 64 µg/mL. It also gave an MIC ([2]; read-out: MIC, Enterococcus faecium isolate 3) of 64 µg/mL (≈ 183 µM), an MIC ([2]; read-out: MIC, Enterococcus faecium isolate 4) greater than 64 µg/mL and an MIC ([2]; read-out: MIC, Enterococcus faecium isolate 5) greater than 64 µg/mL. It also gave an MIC ([2]; read-out: MIC, Enterococcus faecium isolate 6) greater than 64 µg/mL, an MIC ([2]; read-out: MIC, Enterococcus faecium isolate 7) greater than 64 µg/mL and an MIC ([2]; read-out: MIC, Enterococcus faecium isolate 8) greater than 64 µg/mL. The MIC ([2]; read-out: MIC, Enterococcus faecium isolate 9) was greater than 64 µg/mL, the MIC ([2]; read-out: MIC, Enterococcus faecium isolate 10) was greater than 64 µg/mL and the MIC ([2]; read-out: MIC, Enterococcus faecium isolate 11) was greater than 64 µg/mL. The MIC ([2]; read-out: MIC, Enterococcus faecium isolate 12) was greater than 64 µg/mL, the MIC ([2]; read-out: MIC, Enterococcus faecium isolate 13) was greater than 64 µg/mL and the MIC ([2]; read-out: MIC, Enterococcus faecium isolate 14) was greater than 64 µg/mL. For the same compound, the MIC ([2]; read-out: MIC, Enterococcus faecium isolate 15) was greater than 64 µg/mL, the MIC ([2]; read-out: MIC, Enterococcus faecium isolate 16) was greater than 64 µg/mL and the MIC ([2]; read-out: MIC, Enterococcus faecium isolate 17) was greater than 64 µg/mL. The MIC ([2]; read-out: MIC, Enterococcus faecium isolate 18) was greater than 64 µg/mL, the MIC ([2]; read-out: MIC, Enterococcus faecium isolate 19) was greater than 64 µg/mL and the MIC ([2]; read-out: MIC, Enterococcus faecium isolate 20) was greater than 64 µg/mL. It also gave an MIC ([2]; read-out: MIC, Enterococcus faecium isolate 21) greater than 64 µg/mL, an MIC ([2]; read-out: MIC, Enterococcus faecium isolate 22) greater than 64 µg/mL and an MIC ([2]; read-out: MIC, Enterococcus faecium isolate 23) greater than 64 µg/mL. For the same compound, the MIC ([2]; read-out: MIC, Enterococcus faecium isolate 24) was greater than 64 µg/mL, the MIC ([2]; read-out: MIC, Enterococcus faecium isolate 25) was greater than 64 µg/mL and the MIC ([2]; read-out: MIC, Enterococcus faecium isolate 26) was greater than 64 µg/mL. The MIC50 ([2]; VRE) was greater than 64 µg/mL and the MIC90 ([2]; VRE) was greater than 64 µg/mL.
For `O=C(O)c1cn(C2CC2)c2cc(N3CCNCC3)c(F)cc2c1=O` [Ciprofloxacin], the MIC (E. faecalis ATCC 29212 [1]) was 2 µg/mL (≈ 6.04 µM).
For `CCCCCCCCCC(=O)N[C@@H](Cc1c[nH]c2ccccc12)C(=O)N[C@H](CC(N)=O)C(=O)N[C@@H](CC(=O)O)C(=O)N[C@@H]1C(=O)NCC(=O)N[C@@H](CCCN)C(=O)N[C@@H](CC(=O)O)C(=O)N[C@H](C)C(=O)N[C@@H](CC(=O)O)C(=O)NCC(=O)N[C@H](CO)C(=O)N[C@@H]([C@H](C)CC(=O)O)C(=O)N[C@@H](CC(=O)c2ccccc2N)C(=O)O[C@@H]1C` [Daptomycin, daptomycin], the “MIC, E. faecalis ATCC29212” value (E. faecalis ATCC 29212 [3]) was 4 µg/mL (≈ 2.47 µM), the MIC50 [4] was 8 µg/mL (≈ 4.94 µM) and the MIC90 [4] was 8 µg/mL (≈ 4.94 µM). The “MIC Range” value [4] was 8 to 16 µg/mL, the “MIC, Enterococcus faecium isolate 1” value [4] was 8 µg/mL (≈ 4.94 µM) and the “MIC, Enterococcus faecium isolate 2” value [4] was 8 µg/mL (≈ 4.94 µM). The “MIC, Enterococcus faecium isolate 3” value [4] was 8 µg/mL (≈ 4.94 µM), the “MIC, Enterococcus faecium isolate 4” value [4] was 8 µg/mL (≈ 4.94 µM) and the “MIC, Enterococcus faecium isolate 5” value [4] was 8 µg/mL (≈ 4.94 µM). The “MIC, Enterococcus faecium isolate 6” value [4] was 8 µg/mL (≈ 4.94 µM), the “MIC, Enterococcus faecium isolate 7” value [4] was 8 µg/mL (≈ 4.94 µM) and the “MIC, Enterococcus faecium isolate 8” value [4] was 8 µg/mL (≈ 4.94 µM). For the same compound, the “MIC, Enterococcus faecium isolate 9” value [4] was 8 µg/mL (≈ 4.94 µM), the “MIC, Enterococcus faecium isolate 10” value [4] was 8 µg/mL (≈ 4.94 µM) and the “MIC, Enterococcus faecium isolate 11” value [4] was 8 µg/mL (≈ 4.94 µM). For the same compound, the “MIC, Enterococcus faecium isolate 12” value [4] was 8 µg/mL (≈ 4.94 µM), the “MIC, Enterococcus faecium isolate 13” value [4] was 8 µg/mL (≈ 4.94 µM) and the “MIC, Enterococcus faecium isolate 14” value [4] was 8 µg/mL (≈ 4.94 µM). The “MIC, Enterococcus faecium isolate 15” value [4] was 8 µg/mL (≈ 4.94 µM), the “MIC, Enterococcus faecium isolate 16” value [4] was 8 µg/mL (≈ 4.94 µM) and the “MIC, Enterococcus faecium isolate 17” value [4] was 8 µg/mL (≈ 4.94 µM). The “MIC, Enterococcus faecium isolate 18” value [4] was 8 µg/mL (≈ 4.94 µM), the “MIC, Enterococcus faecium isolate 19” value [4] was 8 µg/mL (≈ 4.94 µM) and the “MIC, Enterococcus faecium isolate 20” value [4] was 8 µg/mL (≈ 4.94 µM). For the same compound, the “MIC, Enterococcus faecium isolate 21” value [4] was 8 µg/mL (≈ 4.94 µM), the “MIC, Enterococcus faecium isolate 22” value [4] was 8 µg/mL (≈ 4.94 µM) and the “MIC, Enterococcus faecium isolate 23” value [4] was 8 µg/mL (≈ 4.94 µM). For the same compound, the “MIC, Enterococcus faecium isolate 24” value [4] was 16 µg/mL (≈ 9.87 µM), the “MIC, Enterococcus faecium isolate 25” value [4] was 16 µg/mL (≈ 9.87 µM) and the “MIC, Enterococcus faecium isolate 26” value [4] was 8 µg/mL (≈ 4.94 µM).
